Assay results taken from publication PMC8011931, “Identification, Structure–Activity Relationship, and Biological Characterization of 2,3,4,5-Tetrahydro-1H-pyrido[4,3-b]indoles as a Novel Class of CFTR Potentiators” (Journal of Medicinal Chemistry, 2020).

What was measured:
[1] = Liver microsomal stability, phase I (NADPH), rat; format: in vitro ADME; conditions: for half-life at 1 h, 4.6 µM / half-life at 4.6 μM: rat, liver microsomes, pH 7.5, 0.1% DMSO, n ≥ 3, read-out: rat LM_NADPH t1/2; for rat LM_NADPH parent compound remaining at the last time point (in parentheses): 4.6 μM, 60 min
Protocol: (§1) Phase I: 10 mM DMSO stock solution of the test compound was preincubated at 37 °C for 15 min with rat, dog, or human liver microsomes in 0.1 M Tris–HCl buffer (pH 7.5) with 10% DMSO. The final concentration was 4.6 μM. After preincubation, the cofactors (NADPH, G6P, G6PDH, and MgCl2 predissolved in 0.1 M Tris–HCl) were added to the incubation mixture and the incubation was continued at 37 °C for 1 h.
(§2) For both phase I and II studies: At each time point (0, 5, 15, 30, and 60 min), 30 μL of the incubation mixture was diluted with 200 μL of cold CH3CN spiked with 200 nM of an appropriate internal standard, followed by centrifugation at 3270g for 15 min. The supernatant was further diluted with H2O (1:1) for analysis. A reference incubation mixture (microsomes without cofactors) was prepared for each test compound and analyzed at t = 0 and 60 min in order to verify the compound’s stability in the matrix. The two time points were diluted as for the time points of the incubation mixture above. The supernatants were analyzed by LC/MS–MS on a Waters ACQUITY UPLC/MS TQD system consisting of a TQD (triple quadrupole detector) mass spectrometer equipped with an electrospray ionization interface and a photodiode array eλ detector. Electrospray ionization was applied in positive mode. Compound-dependent parameters as MRM transitions and collision energy were developed for each compound. The analyses were run on an ACQUITY UPLC BEH C18 (50 × 2.1 mm ID, particle size 1.7 μm) with a VanGuard BEH C18 precolumn (5 × 2.1 mm ID, particle size 1.7 μm) at 40 °C, using H2O + 0.1% HCOOH (A) and CH3CN + 0.1% HCOOH (B) as the mobile phase. The percentage of test compound remaining at each time point relative to t = 0 was calculated by the response factor on the basis of the internal standard peak area. The percentage of test compound versus time was plotted and fitted by GraphPad Prism (GraphPad Software, Version 5 for Windows, CA, USA, www.graphpad.com) to estimate the compound’s half-life (t1/2), which was reported as mean value along with the standard deviation (n = 3).

[2] = Liver microsomal stability, phase I (NADPH), human; format: in vitro ADME; conditions: for half-life at 1 h, 4.6 µM / half-life at 4.6 μM: human, liver microsomes, pH 7.5, 0.1% DMSO, n ≥ 3, read-out: human LM_NADPH t1/2; for human LM_NADPH parent compound remaining at the last time point (in parentheses): 4.6 μM, 60 min
Protocol: as §1, §2

F508del-CFTR = F508del-CFTR (Homo sapiens, UniProt P13569, DEL508-508); assay: HS-YFP-based assay for CFTR activity on F508del-CFTR FRT cells rescued at 32 °C for 24 h; format: cell-based; parameters: expressed in transfected cells; key to Emax: fold increase in F508del-CFTR rescue relative to hit 3 (normalized); conditions: for EC50: F508del-CFTR FRT cells rescued at 32 °C for 24 h, plus forskolin; for Emax: supplementary csv, same data as Tables 1–3
F508del-CFTR, sequence (P13569 with tags, fused parts or gaps DEL508-508): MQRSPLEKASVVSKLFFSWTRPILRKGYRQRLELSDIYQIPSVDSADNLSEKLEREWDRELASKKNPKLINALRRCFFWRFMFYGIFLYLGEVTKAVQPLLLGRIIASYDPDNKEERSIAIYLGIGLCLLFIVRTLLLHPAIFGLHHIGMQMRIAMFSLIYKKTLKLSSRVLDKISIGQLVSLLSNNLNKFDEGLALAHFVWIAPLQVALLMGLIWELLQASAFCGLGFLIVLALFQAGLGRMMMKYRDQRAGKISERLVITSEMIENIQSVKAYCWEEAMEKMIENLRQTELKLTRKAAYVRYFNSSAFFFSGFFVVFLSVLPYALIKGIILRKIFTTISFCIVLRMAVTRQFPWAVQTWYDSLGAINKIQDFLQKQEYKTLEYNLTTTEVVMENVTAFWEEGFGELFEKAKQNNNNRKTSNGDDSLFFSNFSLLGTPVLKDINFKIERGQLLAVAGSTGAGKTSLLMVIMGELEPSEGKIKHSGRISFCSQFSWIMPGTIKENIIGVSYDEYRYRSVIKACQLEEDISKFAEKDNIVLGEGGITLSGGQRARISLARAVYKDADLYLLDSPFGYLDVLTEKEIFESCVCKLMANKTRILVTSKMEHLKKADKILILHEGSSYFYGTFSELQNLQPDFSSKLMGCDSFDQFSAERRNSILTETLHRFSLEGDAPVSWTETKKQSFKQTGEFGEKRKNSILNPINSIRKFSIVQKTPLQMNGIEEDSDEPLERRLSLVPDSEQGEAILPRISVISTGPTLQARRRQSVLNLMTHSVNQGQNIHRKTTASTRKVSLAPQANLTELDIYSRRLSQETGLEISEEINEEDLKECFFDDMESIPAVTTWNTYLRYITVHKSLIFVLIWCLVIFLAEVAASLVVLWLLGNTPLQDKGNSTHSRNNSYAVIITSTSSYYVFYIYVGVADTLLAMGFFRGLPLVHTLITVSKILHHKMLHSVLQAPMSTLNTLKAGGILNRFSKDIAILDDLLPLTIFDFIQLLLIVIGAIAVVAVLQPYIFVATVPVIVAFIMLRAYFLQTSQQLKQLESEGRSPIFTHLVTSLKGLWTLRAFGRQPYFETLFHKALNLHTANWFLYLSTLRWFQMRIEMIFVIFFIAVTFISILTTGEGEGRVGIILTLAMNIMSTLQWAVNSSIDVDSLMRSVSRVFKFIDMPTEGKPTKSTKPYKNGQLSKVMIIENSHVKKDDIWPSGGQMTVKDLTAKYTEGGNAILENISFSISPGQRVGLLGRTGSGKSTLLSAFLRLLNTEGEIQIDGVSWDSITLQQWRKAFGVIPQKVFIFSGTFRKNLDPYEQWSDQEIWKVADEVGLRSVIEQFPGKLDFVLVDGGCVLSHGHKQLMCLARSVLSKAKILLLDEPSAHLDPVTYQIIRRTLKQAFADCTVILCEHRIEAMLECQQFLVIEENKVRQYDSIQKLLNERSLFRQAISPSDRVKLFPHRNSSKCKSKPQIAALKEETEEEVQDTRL
Method in brief: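 FRT cells co-expressing F508del-CFTR and HS-YFP (H148Q/I152L) were rescued 24 h at 32 °C, then exposed to compound plus forskolin (10 or 20 μM) for about 25 min in PBS. Iodide injection (100 mM final) quenched YFP (ex 500/em 535 nm). The initial dF/dt gave activity, fitted for EC50 and for Emax relative to a reference hit.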

[3] = mean ± SD (n = 3–6), n.a.: not active (up to 20 μM)

| SMILES | half-life at 1 h, 4.6 µM [1] [min] | half-life at 1 h, 4.6 µM [2] [min] | EC50 (F508del-CFTR; [3]) [µM] | Emax (F508del-CFTR) | rat LM_NADPH parent compound remaining at the last time point (in parentheses) [1] [%] | half-life at 4.6 μM [1] [min] | human LM_NADPH parent compound remaining at the last time point (in parentheses) [2] | half-life at 4.6 μM [2] [min] | Emax (FRT F508del-CFTR) (F508del-CFTR; normalized for the activity of analogue 3, mean ± SD (n = 3–6), n.a.: not active (up to 20 μM)) | activity on F508del-CFTR FRT cells (in words) (F508del-CFTR) | activity compared to VX-770 (F508del-CFTR; tested at 10 and 1 nM, Figure 6A) | fold increase in potency compared to hit 3 (F508del-CFTR; EC50, F508del-CFTR FRT cells) |
| --- | --- | --- | --- | --- | --- | --- | --- | --- | --- | --- | --- | --- |
| COc1ccc2[nH]c3c(c2c1)CN(C(=O)c1cc(C(F)(F)F)[nH]n1)CC3 [Compound 3, (8-Methoxy-1,3,4,5-tetrahydropyrido[4,3-b]indol-2-yl)-[5-(trifluoromethyl)-1H-pyrazol-3-yl]methanone] | 30 ± 1 | 42 ± 11 | 0.35 ± 0.13 | 1 ± 0.04 |  |  |  |  |  |  |  |  |
| COc1cc(F)c2[nH]c3c(c2c1)CN(C(=O)c1cc(C(F)(F)F)[nH]n1)CC3 [Compound 25, (6-Fluoro-8-methoxy-1,3,4,5-tetrahydro-2H-pyrido[4,3-b]indol-2-yl)-(5-(trifluoromethyl)-1H-pyrazol-3-yl)methanone] | 20 ± 1 | 33 ± 1 | 0.13 ± 0.06 | 1.15 ± 0.13 |  |  |  |  |  |  |  |  |
| O=C(c1cc(C(F)(F)F)[nH]n1)N1CCc2[nH]c3c(F)cccc3c2C1 [Compound 20, (6-Fluoro-1,3,4,5-tetrahydro-2H-pyrido[4,3-b]indol-2-yl)-(5-(trifluoromethyl)-1H-pyrazol-3-yl)methanone] |  |  | 0.096 ± 0.021 | 0.96 ± 0.06 | 64 | > 60 | 78% | > 60 | 0.96 ± 0.06 |  |  |  |
| O=C(c1cc(C(F)(F)F)[nH]n1)N1CCc2[nH]c3c(F)ccc(F)c3c2C1 [Compound 29, (6,9-Difluoro-1,3,4,5-tetrahydro-2H-pyrido[4,3-b]indol-2-yl)-(5-(trifluoromethyl)-1H-pyrazol-3-yl)methanone] | 50 ± 9 |  | 0.15 ± 0.08 | 1.19 ± 0.15 |  |  | >60 (60) % | > 60 |  |  |  |  |
| Cc1ccc(F)c2[nH]c3c(c12)CN(C(=O)c1cc(C(F)(F)F)[nH]n1)[C@H](C)C3 [Compound 39, (R)-(6-Fluoro-3,9-dimethyl-1,3,4,5-tetrahydro-2H-pyrido[4,3-b]indol-2-yl)-(5-(trifluoromethyl)-1H-pyrazol-3-yl)methanone] |  |  | 0.017 ± 0.007 | 1.30 ± 0.12 | 70 | > 60 | 71% | > 60 |  | the most potent analogue | slightly lower activity than VX-770 |  |
| Cc1ccc(F)c2[nH]c3c(c12)CN(C(=O)c1cc(C(F)(F)F)[nH]n1)CC3 [Compound 30, (6-Fluoro-9-methyl-1,3,4,5-tetrahydro-2H-pyrido[4,3-b]indol-2-yl)-(5-(trifluoromethyl)-1H-pyrazol-3-yl)methanone] | 32 ± 1 | 53 ± 2 | 0.06 ± 0.03 | 1.00 ± 0.09 |  |  |  |  |  |  |  | more than 6 fold |
